According to US10214542B2, “Modified macrocyclic compounds” (BAYER PHARMA AKTIENGESELLSCHAFT, priority 2015, dated 2019):

Columns and labels:
[1] = target: T1, CDK9/CycT1 (Homo sapiens, UniProt P50750); experiment: CDK9/CycT1 high ATP kinase assay (TR-FRET, Method 1b); format: biochemical; conditions: 2 mM ATP; for IC50: Method 1b; for Selectivity high ATP CDK9 over high ATP CDK2: IC50 (high ATP CDK2)/IC50 (high ATP CDK9): Methods 1b and 2b
T1 construct: Recombinant full-length His-tagged human CDK9 and CycT1; His; purchased Invitrogen PV4131; host or cells: insect cells
T1 sequence (P50750 whole entry): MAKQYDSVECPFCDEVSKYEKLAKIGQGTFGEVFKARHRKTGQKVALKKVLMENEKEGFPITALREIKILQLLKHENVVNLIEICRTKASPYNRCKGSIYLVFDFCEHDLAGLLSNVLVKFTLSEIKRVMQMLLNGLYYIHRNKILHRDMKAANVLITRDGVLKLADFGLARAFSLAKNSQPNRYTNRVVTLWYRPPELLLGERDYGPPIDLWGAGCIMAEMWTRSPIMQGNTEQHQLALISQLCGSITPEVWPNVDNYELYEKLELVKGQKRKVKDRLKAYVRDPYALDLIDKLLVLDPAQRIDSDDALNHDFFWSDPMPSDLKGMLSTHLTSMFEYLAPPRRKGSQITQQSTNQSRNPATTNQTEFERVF
T1 sequence (O60563 whole entry partner): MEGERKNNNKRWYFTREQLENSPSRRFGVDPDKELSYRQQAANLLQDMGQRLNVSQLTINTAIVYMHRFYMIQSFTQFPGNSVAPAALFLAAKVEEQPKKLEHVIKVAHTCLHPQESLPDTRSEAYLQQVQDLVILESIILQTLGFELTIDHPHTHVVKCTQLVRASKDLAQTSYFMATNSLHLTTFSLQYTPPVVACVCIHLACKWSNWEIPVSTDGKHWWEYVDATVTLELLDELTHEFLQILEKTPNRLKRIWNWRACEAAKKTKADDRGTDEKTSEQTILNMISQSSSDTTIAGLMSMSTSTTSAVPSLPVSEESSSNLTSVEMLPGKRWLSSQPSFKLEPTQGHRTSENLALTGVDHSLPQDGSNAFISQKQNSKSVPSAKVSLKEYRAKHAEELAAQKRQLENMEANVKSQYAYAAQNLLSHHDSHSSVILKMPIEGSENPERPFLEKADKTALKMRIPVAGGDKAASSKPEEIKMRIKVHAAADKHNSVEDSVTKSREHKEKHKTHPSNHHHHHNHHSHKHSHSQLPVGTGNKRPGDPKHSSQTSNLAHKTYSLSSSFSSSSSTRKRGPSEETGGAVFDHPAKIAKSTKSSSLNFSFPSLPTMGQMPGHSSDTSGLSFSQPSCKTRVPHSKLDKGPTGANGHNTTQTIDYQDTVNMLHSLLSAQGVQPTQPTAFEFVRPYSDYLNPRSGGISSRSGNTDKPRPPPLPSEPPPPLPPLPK
Experimental: 1b. CDK9/CycT1 High ATP Kinase Assay
CDK9/CycT1-inhibitory activity of compounds of the present invention at a high ATP concentration after preincubation of enzyme and test compounds was quantified employing the CDK9/CycT1 TR-FRET assay as described in the following paragraphs.
Recombinant full-length His-tagged human CDK9 and CycT1, expressed in insect cells and purified by Ni-NTA affinity chromatography, were purchase from Invitrogen (Cat. No PV4131). As substrate for the kinase reaction biotinylated peptide biotin-Ttds-YISPLKSPYKISEG (C-terminus in amid form) was used which can be purchased e.g. from the company JERINI peptide technologies (Berlin, Germany).
For the assay 50 nl of a 100 fold concentrated solution of the test compound in DMSO was pipetted into a black low volume 384 well microtiter plate (Greiner Bio-One, Frickenhausen, Germany), 2 μl of a solution of CDK9/CycT1 in aqueous assay buffer [50 mM Tris/HCl pH 8.0, 10 mM MgCl2, 1.0 mM dithiothreitol, 0.1 mM sodium ortho-vanadate, 0.01% (v/v) Nonidet-P40 (Sigma)] were added and the mixture was incubated for 15 min at 22° C. to allow pre-binding of the test compounds to the enzyme before the start of the kinase reaction. […] The concentration of CDK9/CycT1 was adjusted depending of the activity of the enzyme lot and was chosen appropriate to have the assay in the linear range, typical concentrations were in the range of 0.5 μg/mL. The reaction was stopped by the addition of 5 μl of a solution of TR-FRET detection reagents (0.2 μM streptavidine-XL665 [Cisbio Bioassays, Codolet, France] and 1 nM anti-RB(pSer807/pSer811)-antibody from BD Pharmingen [#558389] and 1.2 nM LANCE EU-W1024 labeled anti-mouse IgG antibody [Perkin-Elmer, product no. AD0077]) in an aqueous EDTA-solution (100 mM EDTA, 0.2% (w/v) bovine serum albumin in 100 mM HEPES pH 7.5).
The resulting mixture was incubated 1 h at 22° C. to allow the formation of complex between the phosphorylated biotinylated peptide and the detection reagents. Subsequently the amount of phosphorylated substrate was evaluated by measurement of the resonance energy transfer from the Eu-chelate to the streptavidine-XL. Therefore, the fluorescence emissions at 620 nm and 665 nm after excitation at 350 nm was measured in a HTRF reader, e.g. a Rubystar (BMG Labtechnologies, Offenburg, Germany) or a Viewlux (Perkin-Elmer). The ratio of the emissions at 665 nm and at […] was taken as the measure for the amount of phosphorylated substrate. The data were normalised (enzyme reaction without inhibitor=0% inhibition, all other assay components but no enzym=100% inhibition).

[2] = system: MOLM-13 cells; experiment: Proliferation assay, Cell Titre-Glo viability (Method 3); format: cell-based; conditions: Homo sapiens; MOLM-13, 72-hour exposure; read-out: Inhibition of MOLM-13 cell proliferation IC50
Experimental: A2780 human ovarian carcinoma cells (ECACC #93112519) and non-adherent MOLM-13 human acute myeloid leukemia cells (DSMZ ACC 554) were seeded at a density of 3,000 cell/well (A2780) or 5,000 cells/well (MOLM-13) in a 96-well multititer plate in 150 μL of growth medium supplemented 10% fetal calf serum. After 24 hours, cell viability of one plate (zero-point plate) was determined with the Cell Titre-Glo Luminescent Cell Viability Assay (Promega), while the medium of the other plates was supplemented with the test substances in various concentrations (0 μM, as well as in the range of 0.0001-10 μM; the final concentration of the solvent dimethyl sulfoxide was adjusted to 0.1%) using a Hewlett-Packard HP D300 Digital Dispenser. Cell viability was assessed after 72-hour exposure with the Cell
Titre-Glo Luminescent Cell Viability Assay (Promega). IC50 values (inhibitory concentration at 50% of maximal effect) were determined by means of a 4 parameter fit on measurement data which were normalized to vehicle (DMSO) treated cells (=100%) and measurement readings taken immediately before compound exposure (=0%).

IC50 [1] | Selectivity high ATP CDK9 over high ATP CDK2: IC50 (high ATP CDK2)/IC50 (high ATP CDK9) [1] | IC50 [2] | Compound
17 nM | 82.9 | 231 nM | C[S+]([O-])Cc1cc2nc(c1)OCCCCCc1cc(F)ccc1-c1cc(ncc1F)N2 (racemic) [Example 19, (rac)-2,19-difluoro-9-[(methylsulfinyl)methyl]-14,15,16,17-tetrahydro-6H,13H-7,11-(azeno)-5,1-(metheno)-12,4,6-benzoxadiazacyclononadecine]
5.2 nM | 177 | 79 nM | CS(=N)(=O)Cc1cc2nc(c1)OCCCCCc1cc(F)ccc1-c1cc(ncc1F)N2 (racemic) [Example 20, (rac)-2,19-difluoro-9-[(S-methylsulfonimidoyl)methyl]-14,15,16,17-tetrahydro-6H,13H-7,11-(azeno)-5,1-(metheno)-12,4,6-benzoxadiazacyclononadecine]
323 nM | >61.9 | 970 nM | CSCc1cc2nc(c1)OCCCCc1cc(F)ccc1-c1cc(ncc1F)N2 [Example 4, 2,18-Difluoro-9-[(methylsulfanyl)methyl]-13,14,15,16-tetrahydro-6H-7,11-(azeno)-5,1-(metheno)-12,4,6-benzoxadiazacyclooctadecine]

The remaining lines, values behind:

Compound | IC50 [1] | Selectivity high ATP CDK9 over high ATP CDK2: IC50 (high ATP CDK2)/IC50 (high ATP CDK9) [1] | IC50 [2]
CC(C)(C)OC(=O)N=S(C)(=O)Cc1cc2cc(c1)OCCCCSc1cc(F)ccc1-c1nc(ncc1F)N2 (racemic) [Example 21, (rac)-tert-butyl[{[16,20-difluoro-2,3,4,5-tetrahydro-12H-17,13-(azeno)-11,7-(metheno)-6,1,12,14-benzoxathiadiazacyclononadecin-9-yl]methyl}(methyl)oxido-λ^6-sulfanylidene]carbamate] | 13 nM | 915 | 162 nM
CS(=N)(=O)Cc1cc2cc(c1)OCCCCSc1cc(F)ccc1-c1nc(ncc1F)N2 (racemic) [Example 22, (rac)-16,20-difluoro-9-[(S-methylsulfonimidoyl)methyl]-2,3,4,5-tetrahydro-12H-17,13-(azeno)-11,7-(metheno)-6,1,12,14-benzoxathiadiazacyclononadecine] | 4.5 nM | 244 | 23 nM
CN1CCCCOc2cc(F)ccc2-c2nc(ncc2F)Nc2cc(CS(C)(=N)=O)cc1c2 (racemic) [Example 23, (rac)-16,20-difluoro-6-methyl-9-[(S-methylsulfonimidoyl)methyl]-3,4,5,6-tetrahydro-2H,12H-13,17-(azeno)-11,7-(metheno)-1,6,12,14-benzoxatriazacyclononadecine] | 2.1 nM | 629 | 9.8 nM
CSCc1cc2nc(c1)Nc1cc(c(F)cn1)-c1ccc(F)cc1OCCCN2 [Example 1, 15,19-Difluoro-8-[(methylsulfanyl)methyl]-2,3,4,5-tetrahydro-11H-10,6-(azeno)-12,16-(metheno)-1,5,11,13-benzoxatriazacyclooctadecine] | 3.8 nM | 140 | 8 nM
CSCc1cc2nc(c1F)N(C)CCCCOc1cc(F)ccc1-c1cc(ncc1F)N2 [Example 12, 8,16,20-trifluoro-6-methyl-9-[(methylsulfanyl)methyl]-3,4,5,6-tetrahydro-2H,12H-11,7-(azeno)-13,17-(metheno)-1,6,12,14-benzoxatriazacyclononadecine] | 10 nM | – | 100 nM
